2 molecules from patent US20240051957A1, “CRYSTALLINE FORM OF HETEROCYCLIC COMPOUND AS PROTEIN KINASE INHIBITOR” (HK INNO.N CORPORATION, priority 2021, published 2024) can be followed below.

Data set [1] can be described thus: Physical stability evaluation under stress conditions (XRPD before/after). Particulars: stored at 60° C.±2° C./80% RH±5% for two days, packaged ((LPDE+N2)+silica gel 1 g+LDPE)+Al-Bag. Format: physicochemical. Here is the method: 1. XRPD Analysis A plate for obtaining an XRPD pattern was mounted on a Bruker General Area Detector Diffraction System (GADDS) equipped with a VANTEC-500 gas domain detector calibrated for intensity and geometric changes. Calibration of measurement accuracy (peak position) was performed using NIST SRM1976 standard (Corundum). Data collection was performed at room temperature using monochromatic CuKα radiation in a diffraction angle (2θ) region of 1.5° to 41.5°, the most distinct part of the XRPD pattern. The diffraction pattern of each well was collected at two 2θ ranges (1.5°≤2θ≤21.5° for a first frame and 9.5°≤2θ≤41.5° for a second frame) with an exposure time of 90 seconds for each frame. No background subtraction or curve smoothing was applied to the XRPD pattern. The carrier material used in the XRPD analysis was transparent to X-rays.
4. Experiment on Physical Stability Evaluation
Samples were packaged in the form of ((LPDE+N2)+silica gel 1 g+LDPE)+Al-Bag, and stored under stress conditions (60° C.±2° C./80% RH±5%) for two days before evaluation.

Data set [2] can be described thus: TGA/SDTA and TGMS analysis. In kind it is physicochemical. The following applies: heating 25° C. to 300° C. at 10° C./min. The protocol:
3. TGA/SDTA and TGMS Analysis
A mass loss caused by solvent or a moisture loss from crystals was determined by thermogravimetric analysis/simultaneous differential thermal analysis (TGA/SDTA). A weight versus temperature curve was generated by monitoring the weight of samples during heating in a TGA/SDTA851e apparatus (product name, Mettler-Toledo GmbH, Switzerland). TGA/SDTA851e was calibrated with indium and aluminum samples. The sample was placed in a 100 μL aluminum crucible and sealed, and then a pin-hole was drilled therein. The crucible was heated from 25° C. to 300° C. in TGA at a heating rate of 10° C./min. Dry N2 gas was used for purging. The gas coming out of the TGA sample was analyzed by Omnistar GSD 301 T2 (product name, Pfeiffer Vacuum GmbH, Germany), which was a quadrupole mass spectrometer for analyzing a mass in the range of 0-200 amu.

For the molecule `C[C@@H]1CN(C(=O)CC#N)CC=C1c1cc(NC(=O)C2CC2)nc2[nH]ccc12` [Example 1, (S)-N-(4-(1-(2-cyanoacetyl)-3-methyl-1,2,3,6-tetrahydropyridin-4-yl)-1H-pyrrolo[2,3-b]pyridin-6-yl)cyclopropanecarboxamide], the “change in the XPRD pattern before/after the stress conditions (physical stability)” value in data set [1] is “substantially no change in the XPRD pattern”. Take `C[C@@H]1CN(C(=O)CC#N)CC=C1c1cc(NC(=O)C2CC2)nc2[nH]ccc12` [(S)-N-(4-(1-(2-cyanoacetyl)-3-methyl-1,2,3,6-tetrahydropyridin-4-yl)-1H-pyrrolo[2,3-b]pyridin-6-yl)cyclopropanecarboxamide]: in data set [2] (TGA), the “start of thermal decomposition” value is “about 260 °C”. Also, the “mass reduction rate (thermogravimetric analysis)” value in data set [2] (at 150° C.) came to 1.6%.
